Measured values as given in patent US10221163B2 (priority 2015, dated 2019).
Like-named read-outs stand apart in the source and are kept apart here.

Assays:
[1] = test system: Pseudomonas aeruginosa MB9798 vs MB9799; settings: ratio MITC95 PA_9798/MITC95 PA_9799
How it was run: (§1)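 P. aeruginosa PAO1-derived IMP-1 strains, efflux+ MB9798 and efflux− MB9799, tested by standard microbroth MIC with imipenem and/or ceftazidime fixed, usually at CLSI breakpoint, plus fixed class A/C β-lactamase inhibitor against AmpC. Inhibitor titrated; concentration restoring susceptibility recorded; MB9798/MB9799 fold difference indicates efflux.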

[2] = test system: Pseudomonas aeruginosa efflux+ (MB9798), IMP-1; type: cell-based; settings: concentration restoring susceptibility to imipenem at 2 μg/mL in the presence of a class A, C, D serine β-lactamase inhibitor closely related to relebactam
How it was run: as §1

[3] = test system: Pseudomonas aeruginosa efflux− (MB9799), IMP-1; type: cell-based; settings: concentration restoring susceptibility to imipenem at 2 μg/mL in the presence of a class A, C, D serine β-lactamase inhibitor closely related to relebactam
How it was run: as §1

NDM-1 = NDM-1 (Klebsiella pneumoniae, UniProt C7C422); experiment: biochemical; type: biochemical; settings: fluorescence assay, CCF2-FA substrate, 1 pM enzyme, 2 hours at 25° C.; read-out: NDM-1 IC50
Chain of NDM-1 (C7C422 whole entry, looked up, species assumed): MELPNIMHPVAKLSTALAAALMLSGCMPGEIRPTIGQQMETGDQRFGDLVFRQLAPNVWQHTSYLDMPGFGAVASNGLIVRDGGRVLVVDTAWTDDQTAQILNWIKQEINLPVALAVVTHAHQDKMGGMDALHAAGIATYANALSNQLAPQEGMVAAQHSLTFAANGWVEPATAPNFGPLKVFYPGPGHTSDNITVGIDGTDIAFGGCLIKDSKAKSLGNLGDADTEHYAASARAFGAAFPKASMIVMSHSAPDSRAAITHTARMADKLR
How it was run: (§2)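 Fluorescence assay, CCF2-FA substrate (cephalosporin core linking 7-hydroxycoumarin to fluorescein); inhibitor + MBL + substrate, 2 h, 25° C. IC50 by 4-parameter fit, semi-log plot.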

IMP-1 = IMP-1 (Serratia marcescens, UniProt P52699); experiment: biochemical; type: biochemical; settings: fluorescence assay, CCF2-FA substrate, 2 pM enzyme, 2 hours at 25° C.; read-out: IMP-1 IC50
Chain of IMP-1 (P52699 whole entry, looked up, species assumed): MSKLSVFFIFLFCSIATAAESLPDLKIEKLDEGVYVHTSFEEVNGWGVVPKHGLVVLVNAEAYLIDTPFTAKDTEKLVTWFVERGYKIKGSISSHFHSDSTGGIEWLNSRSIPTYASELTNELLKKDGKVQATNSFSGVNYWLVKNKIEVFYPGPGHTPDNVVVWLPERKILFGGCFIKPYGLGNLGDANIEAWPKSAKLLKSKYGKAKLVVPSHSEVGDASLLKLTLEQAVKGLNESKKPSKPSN
How it was run: as §2

[4] = test system: Escherichia coli expressing NDM-1 (CLB30005, CLB30016); type: cell-based; settings: with imipenem 1 μg/ml; 95% inhibition of bacterial growth
How it was run: (§3)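 Clinical strains grown overnight on blood agar at 35°C, colonies suspended in saline, diluted 1:100 into 1.1×CAMHB. Test compound titrated with imipenem at 1 μg/ml; incubated 22–24 h at 35°C, growth read by absorbance.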

[5] = test system: Serratia marcescens expressing IMP-1 (CL5741); type: cell-based; settings: with imipenem 1 μg/ml; 95% inhibition of bacterial growth
How it was run: as §3

[6] = test system: Klebsiella pneumoniae expressing VIM-1 (IHMA599644); type: cell-based; settings: with imipenem 1 μg/ml; 95% inhibition of bacterial growth
How it was run: as §3

VIM-1 = VIM-1 (Pseudomonas aeruginosa (strain ATCC 15692 / DSM 22644 / CIP 104116 / JCM 14847 / LMG 12228 / 1C / PRS 101 / PAO1), UniProt A0A0F7KYQ8); experiment: biochemical; settings: CCF2-FA substrate, 30 pM enzyme, 2 hours at 25° C.
How it was run: as §2

[7] = fluorescence assay, read-out: VIM-1 IC50

Row | SMILES | Efflux ratio [1] | P. aeruginosa expressing IMP-1, efflux + (MB9798) MITC95 [2] [µM] | P. aeruginosa expressing IMP-1, efflux − (MB9799) MITC95 [3] [µM] | IC50 (NDM-1) [nM] | IC50 (IMP-1) [nM] | Escherichia coli expressing NDM-1 (CLB30016) MITC95 [4] [µM] | Serratia marcescens expressing IMP-1 (CL5741) MITC95 [5] [µM] | Klebsiella pneumoniae expressing VIM-1 (IHMA599644) MITC95 [6] [µM] | IC50 (VIM-1; [7]) [nM] | IC50 (VIM-1; VIM-1 IC50, fluorescence assay) [nM]
1 | Nc1ccc(-c2ccc(S(N)(=O)=O)c(S(N)(=O)=O)c2-c2nn[nH]n2)cn1 [Example 155, 4-(6-Aminopyridin-3-yl)-3-(2H-tetrazol-5-yl)benzene-1,2-disulfonamide] | 4.88 | 6.25 | 1.281 | 1.64 | 0.658 | 0.0625 | 0.6406 | 2.563 | 0.804 | 
2 | CS(=O)(=O)Nc1nc2c(-c3ccc(S(=O)(=O)N4CCNCC4)c(S(N)(=O)=O)c3-c3nn[nH]n3)cccc2s1 [Example 156, 3-(2-(Methylsulfonamido)benzo[d]thiazol-4-yl)-6-(piperazin-1-ylsulfonyl)-2-(2H-tetrazol-5-yl)benzenesulfonamide] | 2.00 | 12.5 | 6.25 | 0.29 | 0.898 | 6.25 | 12.5 | 25 | 1.74 | 
3 | Nc1nc2cccc(-c3ccc(S(=O)(=O)N4CCNCC4)c(S(N)(=O)=O)c3-c3nn[nH]n3)c2[nH]1 [Example 157, 3-(2-amino-3H-benzo[d]imidazol-4-yl)-6-(piperazin-1-ylsulfonyl)-2-(2H-tetrazol-5-yl)benzenesulfonamide] | 4.00 | 1.781 | 0.4453 | 0.32 | 3.09 | 0.125 | 0.8906 | 1.281 | 0.827 | 
4 | Cn1c(N)nc2c(-c3ccc(S(=O)(=O)N4CCNCC4)c(S(N)(=O)=O)c3-c3nn[nH]n3)cccc21 [Example 158, 3-(2-amino-1-methyl-1H-benzo[d]imidazol-4-yl)-6-(piperazin-1-ylsulfonyl)-2-(2H-tetrazol-5-yl)benzenesulfonamide] | 3.51 | 3.125 | 0.8906 | 0.601 | 1.71 | 0.25 | 0.8906 | 1.781 |  | 1.27
5 | Nc1nc2c(-c3ccc(S(=O)(=O)N4CCNCC4)c(S(N)(=O)=O)c3-c3nn[nH]n3)cccc2o1 [Example 159, 3-(2-aminobenzo[d]oxazol-4-yl)-6-(piperazin-1-ylsulfonyl)-2-(2H-tetrazol-5-yl)benzenesulfonamide] | 2.00 | 3.125 | 1.563 | 0.195 | 1.29 | 1.563 | 1.563 | 3.125 | 0.51 | 
6 | NS(=O)(=O)c1c(S(=O)(=O)N2CCNCC2)ccc(-c2cccc3cn[nH]c23)c1-c1nnn[nH]1 [Example 160, 3-(1H-indazol-7-yl)-6-(piperazin-1-ylsulfonyl)-2-(1H-tetrazol-5-yl)benzenesulfonamide] | 4.00 | 6.25 | 1.563 | 0.599 | 1.39 | 3.125 | 1.563 | 3.125 | 1.07 | 
7 | Nc1nc2c(-c3ccc(S(=O)(=O)N[C@@H]4CCNC4)c(S(N)(=O)=O)c3-c3nn[nH]n3)cccc2[nH]1 [Example 161, 4-(2-amino-1H-benzo[d]imidazol-4-yl)-N^1—((R)-pyrrolidin-3-yl)-3-(2H-tetrazol-5-yl)benzene-1,2-disulfonamide] | 0.78 | 0.3993 | 0.5139 | 0.0314 | 0.401 | 0.2995 | 0.5295 | 0.8542 | 0.106 | 
8 | Nc1nc2c(-c3ccc(S(=O)(=O)N[C@H]4CCNC4)c(S(N)(=O)=O)c3-c3nn[nH]n3)cccc2[nH]1 [Example 162, 4-(2-amino-1H-benzo[d]imidazol-4-yl)-N^1-((S)-pyrrolidin-3-yl)-3-(2H-tetrazol-5-yl)benzene-1,2-disulfonamide] | 0.87 | 0.4271 | 0.4922 | 0.0607 | 0.733 | 0.3203 | 0.5573 | 0.9844 | 0.154 | 
9 | Cn1c(N)nc2c(-c3ccc(S(=O)(=O)N[C@H]4CCNC4)c(S(N)(=O)=O)c3-c3nn[nH]n3)cccc21 [Example 163, 4-(2-amino-1-methyl-1H-benzo[d]imidazol-4-yl)-N^1-((S)-pyrrolidin-3-yl)-3-(2H-tetrazol-5-yl)benzene-1,2-disulfonamide] | 1.00 | 0.7813 | 0.7813 | 0.0605 | 0.45 | 0.3906 | 0.7813 | 0.7813 | 0.118 | 
10 | Cn1c(N)nc2c(-c3ccc(S(=O)(=O)N[C@@H]4CCNC4)c(S(N)(=O)=O)c3-c3nn[nH]n3)cccc21 [Example 164, 4-(2-amino-1-methyl-1H-benzo[d]imidazol-4-yl)-N^1-((R)-pyrrolidin-3-yl)-3-(2H-tetrazol-5-yl)benzene-1,2-disulfonamide] | 1.00 | 0.7813 | 0.7813 | 0.0378 | 0.272 | 0.3906 | 0.7813 | 0.7813 | 0.105 | 
11 | NC1CCC(c2ccc(S(N)(=O)=O)c(S(N)(=O)=O)c2-c2nnn[nH]2)CC1 (stereo not drawn) [Example 165, 4-(4-aminocyclohexyl)-3-(1H-tetrazol-5-yl)benzene-1,2-disulfonamide] | 4.00 | 6.25 | 1.563 | 17.7 | 24.4 | 0.3906 | 1.563 | 3.125 |  | 1.17
12 | C[N+]1(C)CC[C@H](NS(=O)(=O)c2ccc(-c3cccc4[nH]c(N)nc34)c(-c3nn[n-]n3)c2S(N)(=O)=O)C1 [Example 166, (S)-5-(6-(2-amino-1H-benzo[d]imidazol-4-yl)-3-(N-(1,1-dimethylpyrrolidin-1-ium-3-yl)sulfamoyl)-2-sulfamoylphenyl)tetrazol-2-ide] | […] | 1.563 | 1.563 | 0.0581 | 0.82 | 0.7813 | 1.563 | 3.125 |  | […]
